Measured values taken from the supplement of paper PMC10307832.

What follows are cell lines tested with Cc1cc([C@@H](C)Nc2ccccc2C(=O)O)c2nc(N3CCOCC3)cc(=O)n2c1 [AZD6482] + C[C@]1(O)C[C@@H](c2nc(-c3ccc4ccc(-c5ccccc5)nc4c3)c3c(N)nccn32)C1 [Linsitinib] (partner 1 µM) (assay: relative viability (nuclei count vs DMSO), 5 days (fraction); higher = more cells survive). Conditions: first compound 0.08 µM.
Procedure, shortened: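 Lung cancer cell lines in 1536-well plates were dosed by pin tool the day after seeding, either with one drug alone or with a fixed anchor-drug dose plus five library-drug doses (not always all listed) in √10 steps. After 5 days, cells were fixed and their nuclei stained in one step (final 0.05% Triton X-100, 1% formaldehyde, 1 ug/ml Hoechst), then counted on 4× images. Relative viability is the nuclei count in treated wells divided by that in vehicle wells. Values are medians of duplicate plates.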

Cell Line | relative viability
NCI-H838 | 0.805
LCLC-103H | 0.869
NCI-H520 | 0.773
NCI-H2126 | 0.551
EMC-BAC-2 | 0.744
NCI-H2085 | 0.453
Calu-6 | 0.726
HCC-366 | 0.383
NCI-H1666 | 0.536
NCI-H596 | 0.789
LK-2 | 0.587
NCI-H2087 | 0.902
SK-MES-1 | 0.873
H3255 | 0.919
COR-L23 | 0.595
COR-L 105 | 0.635
IA-LM | 0.861
LOU-NH91 | 0.782
NCI-H2405 | 0.399
HOP-62 | 1.1
HCC-44 | 0.413
A549 | 0.478
LU99A | 0.445
BEN | 0.884
HARA | 0.691
HCC-78 | 0.285
NCI-H1299 | 0.907
NCI-H1563 | 1.02
ABC-1 | 0.611

Same assay, conditions: first compound 0.253 µM

Cell Line | relative viability
NCI-H727 | 0.296
EBC-1 | 0.76
NCI-H1703 | 0.398
NCI-H1993 | 0.775
SW 1573 | 0.678
NCI-H838 | 0.994
LCLC-103H | 0.73
NCI-H520 | 0.623
NCI-H2126 | 0.591
EMC-BAC-2 | 0.681
NCI-H2085 | 0.422
Calu-6 | 0.889
HCC-366 | 0.438
NCI-H1666 | 0.586
NCI-H596 | 0.979
LK-2 | 0.521
NCI-H2087 | 0.929

Cell Line | relative viability
SK-MES-1 | 1.01
H3255 | 0.907
COR-L23 | 0.933
COR-L 105 | 0.779
IA-LM | 0.732
LOU-NH91 | 0.913
HOP-62 | 0.836
HCC-44 | 0.527
A549 | 0.347
LU99A | 0.44
BEN | 0.93
HARA | 0.974
HCC-78 | 0.209
NCI-H1299 | 1.03
NCI-H1563 | 0.951
ABC-1 | 0.801

Same assay, conditions: first compound 0.8 µM

Cell Line | relative viability
NCI-H727 | 0.284
EBC-1 | 0.788
NCI-H1703 | 0.478
SW 1573 | 0.493
NCI-H838 | 0.934
LCLC-103H | 0.72
NCI-H520 | 0.59
NCI-H2126 | 0.518
EMC-BAC-2 | 0.781
NCI-H2085 | 0.327
Calu-6 | 0.89
HCC-366 | 0.477
NCI-H1666 | 0.63
NCI-H596 | 1.01
LK-2 | 0.791
NCI-H2087 | 1.09
SK-MES-1 | 0.608

Cell Line | relative viability
H3255 | 0.945
COR-L23 | 1.03
COR-L 105 | 0.783
IA-LM | 0.786
LOU-NH91 | 0.842
NCI-H2405 | 0.673
HOP-62 | 1.12
HCC-44 | 0.429
A549 | 0.466
LU99A | 0.434
BEN | 0.988
HARA | 1.11
HCC-78 | 0.223
NCI-H1299 | 1.11
NCI-H1563 | 0.908
ABC-1 | 0.81

Same assay, conditions: first compound 2.53 µM

Cell Line | relative viability
EBC-1 | 0.348
NCI-H1703 | 0.249
SW 1573 | 0.443
NCI-H838 | 0.614
LCLC-103H | 0.605
NCI-H2126 | 0.485
EMC-BAC-2 | 0.529
NCI-H2085 | 0.26
Calu-6 | 0.701
HCC-366 | 0.151
NCI-H1666 | 0.589
NCI-H596 | 0.957
LK-2 | 0.513
NCI-H2087 | 0.815
SK-MES-1 | 0.394
H3255 | 0.602
COR-L23 | 0.565
COR-L 105 | 0.553
LOU-NH91 | 0.598
NCI-H2405 | 0.427
HOP-62 | 0.67
HCC-44 | 0.539
LU99A | 0.331
BEN | 0.717
HCC-78 | 0.214
NCI-H1299 | 0.803
NCI-H1563 | 0.843
ABC-1 | 0.521

Same assay, conditions: first compound 8 µM

Cell Line | relative viability
NCI-H727 | 0.281
EBC-1 | 0.408
NCI-H1703 | 0.47
NCI-H1993 | 0.654
SW 1573 | 0.572
NCI-H838 | 0.769
LCLC-103H | 0.572
NCI-H520 | 0.412
NCI-H2126 | 0.548
EMC-BAC-2 | 0.587
NCI-H2085 | 0.467
Calu-6 | 0.899
HCC-366 | 0.141
NCI-H1666 | 0.574
NCI-H596 | 1.02
LK-2 | 0.421
NCI-H2087 | 0.964

Cell Line | relative viability
SK-MES-1 | 0.393
H3255 | 0.729
COR-L23 | 0.686
COR-L 105 | 0.603
IA-LM | 0.969
LOU-NH91 | 0.665
NCI-H2405 | 0.629
HOP-62 | 0.841
HCC-44 | 0.362
A549 | 0.432
LU99A | 0.361
BEN | 0.85
HARA | 0.775
HCC-78 | 0.236
NCI-H1299 | 1.17
NCI-H1563 | 0.759
ABC-1 | 0.815
